This passage reports TGI and GI50 results from PubChem BioAssay (NCI).

“And” between values parts separate entries of the source, which are not always exact repeats. Equal values may be shown once.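 Where inhibition never reached the appropriate level, the endpoint shown equals the highest concentration tested. Otherwise, values were interpolated linearly from a five-concentration, 48-hour dose response in 96-well plates. GI50 marks 50% less growth. TGI denotes the concentration required for complete inhibition of growth.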

Among the test systems are LXFL 529 NSCLC; M19-MEL melanoma; DLD-1 colon; BT-549 breast; DU-145 prostate; HS 578T breast; MDA-MB-435; NCI/ADR-RES ovarian; T-47D breast.
What all share (assay): NCI tumour cell line growth inhibition, 48 h

On to `O=C1C[C@H]2CCCN2[C@@H](c2ccccc2)C1`, for which the TGI in the assay on LXFL 529 NSCLC and in the assay with M19-MEL melanoma was above 100 µM each time.
Consider `O=C(O)CCNS(=O)(=O)c1ccc(NC(=O)c2ccccc2)cc1`, for which the TGI in the assay with DLD-1 colon, in the assay with LXFL 529 NSCLC and with M19-MEL melanoma was above 100 µM throughout.
With `Cc1cc2c(C)nn(Cc3ccccc3)c2c(C(=O)O)c1C`, the TGI with LXFL 529 NSCLC and in the assay on M19-MEL melanoma was above 100 µM throughout.
As to `Cc1ccc(S(=O)(=O)SC/C=C\CSS(=O)(=O)c2ccc(C)cc2)cc1`, the TGI is 25.4 µM in the assay on BT-549 breast; > 100 µM and 47.7 µM in the assay with DLD-1 colon; above 66.9 µM in the assay on DU-145 prostate; above 100 µM with HS 578T breast; > 67.8 µM and 33.9 µM in the assay with LXFL 529 NSCLC; > 100 µM and 95.1 µM in the assay on M19-MEL melanoma. In addition, the TGI in the assay on MDA-MB-435 is 27.6 µM; in the assay on NCI/ADR-RES ovarian it was above 100 µM; in the assay with T-47D breast, above 100 µM. In addition, the GI50 in the assay with LXFL 529 NSCLC is 8.61 µM and 17.5 µM.
Regarding `O=C(NCCCOC(=O)CCCCCCCCC(=O)OCCCNC(=O)NC(=O)c1c[nH]c(=O)[nH]c1=O)NC(=O)c1c[nH]c(=O)[nH]c1=O`, the TGI with DLD-1 colon, in the assay on LXFL 529 NSCLC and in the assay on M19-MEL melanoma was above 100 µM each time.
With `Nc1ncnc2c1ncn2C1OC(CSCC(F)(F)F)C(O)C1O` (stereo not drawn), the TGI in the assay with DLD-1 colon, in the assay on LXFL 529 NSCLC and in the assay with M19-MEL melanoma was above 100 µM throughout.
Regarding `O=S(=O)(Nc1ccc(Br)cc1)c1ccc(-c2cnc(C3CC3)o2)cc1`, the GI50 in the assay on BT-549 breast was 3.37 µM; in the assay with DU-145 prostate, 3.8 µM; in the assay on HS 578T breast, 1.38 µM; in the assay on MDA-MB-435 it was 0.239 µM; in the assay on NCI/ADR-RES ovarian, 1 µM; in the assay on T-47D breast, 2.84 µM. The TGI was found to be 19.4 µM in the assay on BT-549 breast; 17.4 µM in the assay with DU-145 prostate; 6.17 µM with HS 578T breast; 0.646 µM in the assay on MDA-MB-435; 10.4 µM with NCI/ADR-RES ovarian; 16.9 µM in the assay on T-47D breast.
Consider `O=C(Nc1cccc(Cl)c1)Nn1cnnc1`, for which the GI50 with BT-549 breast, with DU-145 prostate, with HS 578T breast, in the assay with MDA-MB-435, in the assay with NCI/ADR-RES ovarian and in the assay with T-47D breast was above 50 µM throughout. The TGI with BT-549 breast, in the assay with DU-145 prostate, in the assay on HS 578T breast, in the assay on MDA-MB-435, in the assay on NCI/ADR-RES ovarian and in the assay with T-47D breast was above 100 µM each time.
Consider `C1CSCCCSCCCSCCCSCCCSCCCSCCCSCCCSC1`, for which the TGI in the assay with BT-549 breast, with DU-145 prostate, with HS 578T breast, in the assay on MDA-MB-435, with NCI/ADR-RES ovarian and in the assay on T-47D breast was above 100 µM throughout.
`O=C(c1ccc2ccccc2c1)c1c(C(F)(F)F)n([O-])c2ccc(C(F)(F)F)cc2[n+]1=O`: the GI50 in the assay with BT-549 breast is 0.278 µM; with DU-145 prostate, 0.738 µM; in the assay with HS 578T breast, 1.44 µM; in the assay on MDA-MB-435, 1.75 µM; in the assay with NCI/ADR-RES ovarian, 1.7 µM; in the assay with T-47D breast, 0.755 µM. Besides, the TGI is 0.751 µM with BT-549 breast; 2 µM in the assay on DU-145 prostate; 3.97 µM in the assay on HS 578T breast; 3.35 µM in the assay with MDA-MB-435; 4.75 µM in the assay with NCI/ADR-RES ovarian; 2.31 µM in the assay on T-47D breast.
In the case of `CO/N=C(\COc1ccc2c(c1)[nH]c1ccccc12)c1ccc(OC)cc1`, the GI50 in the assay on BT-549 breast is above 100 µM; with DU-145 prostate, above 100 µM; in the assay with HS 578T breast, 18.9 µM; in the assay on MDA-MB-435, 43.3 µM; in the assay with NCI/ADR-RES ovarian it was above 100 µM; in the assay with T-47D breast it was above 100 µM. For the same compound, the TGI in the assay with BT-549 breast, in the assay on DU-145 prostate, in the assay with HS 578T breast, in the assay on MDA-MB-435, with NCI/ADR-RES ovarian and with T-47D breast was above 100 µM throughout.
Take `O=C1/C(=C/c2ccc([N+](=O)[O-])cc2)CN(C(=O)CCN2CCC(=NO)CC2)C/C1=C\c1ccc([N+](=O)[O-])cc1`: the GI50 in the assay with BT-549 breast is 1.71 µM; in the assay with DU-145 prostate, 1.61 µM; in the assay on HS 578T breast it was 1.98 µM; in the assay on MDA-MB-435 it was 1 µM; in the assay with NCI/ADR-RES ovarian, 1.49 µM; in the assay on T-47D breast, 1.84 µM. In addition, the TGI was 4.32 µM in the assay with BT-549 breast; 4.65 µM in the assay on DU-145 prostate; 9.86 µM with HS 578T breast; 3.45 µM with MDA-MB-435; 17.8 µM in the assay on NCI/ADR-RES ovarian; 9.27 µM in the assay with T-47D breast.
In the case of `O=C(/C=C/c1ccccc1)Oc1cccc2cccnc12`, the TGI with DLD-1 colon is 31.4 µM; in the assay on LXFL 529 NSCLC, 52.2 µM; in the assay with M19-MEL melanoma, above 100 µM.
For the compound `C=CCc1c(Cl)nc(Cl)nc1Cl`, the TGI was 0.641 µM with BT-549 breast; 4.86 µM in the assay with DU-145 prostate; 4.14 µM with HS 578T breast; 1.4 µM in the assay on MDA-MB-435; above 49.4 µM with NCI/ADR-RES ovarian; 0.979 µM with T-47D breast.
With `COc1cc(/C=C/C(=O)/C=C/c2cc(OC)c3c(c2)OCO3)cc2c1OCO2`, the GI50 in the assay on BT-549 breast is 3.02 µM; in the assay with DU-145 prostate, 18.4 µM; in the assay on HS 578T breast, 95.3 µM; in the assay on MDA-MB-435, 1.92 µM; in the assay with NCI/ADR-RES ovarian, 52.8 µM; in the assay with T-47D breast it was 9.62 µM. For the same compound, the TGI in the assay on BT-549 breast is 8.81 µM; in the assay with DU-145 prostate, above 100 µM; with HS 578T breast, above 100 µM; in the assay with MDA-MB-435 it was 4.22 µM; in the assay with NCI/ADR-RES ovarian, above 100 µM; in the assay with T-47D breast, above 100 µM.
Turning to `C=C1CCC2C3(C)COC(C)(C)OC3CCC2(C)C1C/C=C1/C(=O)OCC1OC(C)=O` (stereo not drawn), the GI50 in the assay with BT-549 breast was 2.33 µM; in the assay on DU-145 prostate it was 4.28 µM; in the assay with HS 578T breast it was 2.75 µM; with MDA-MB-435, 2.54 µM; in the assay with NCI/ADR-RES ovarian, 3.06 µM; with T-47D breast, 2.96 µM. Besides, the TGI with BT-549 breast worked out at 6.79 µM; with DU-145 prostate, 14 µM; with HS 578T breast it was 9.59 µM; with MDA-MB-435 it was 11.3 µM; in the assay with NCI/ADR-RES ovarian, 11.1 µM; with T-47D breast, 11.5 µM.
Take `CCN1C(=O)N(CC)C2C1NN=c1s/c(=C\c3ccc(Cl)cc3Cl)c(=O)n12` (stereo not drawn): the GI50 in the assay on BT-549 breast is 0.0302 µM; with DU-145 prostate it was 0.0332 µM; in the assay on HS 578T breast, 0.0379 µM; in the assay on MDA-MB-435, 0.0206 µM; in the assay with NCI/ADR-RES ovarian, 0.0301 µM; in the assay on T-47D breast, 15.7 µM. Also, the TGI with BT-549 breast is 2.48 µM; in the assay with DU-145 prostate it was 1.38 µM; in the assay with HS 578T breast, above 50.5 µM; in the assay with MDA-MB-435 it was 0.0572 µM; in the assay on NCI/ADR-RES ovarian, above 32 µM; in the assay on T-47D breast it was 99.3 µM.
For the compound `Cc1c2cnccc2c(C)c2c1c1cc(C#N)ccc1n2C`, the GI50 with BT-549 breast was 0.406 µM; with DU-145 prostate it was 0.208 µM; in the assay on HS 578T breast it was 0.241 µM; in the assay with MDA-MB-435, 0.271 µM; with NCI/ADR-RES ovarian it was 0.117 µM; in the assay on T-47D breast it was 0.303 µM. Besides, the TGI in the assay with BT-549 breast is 1.97 µM; in the assay on DU-145 prostate it was 0.836 µM; in the assay on HS 578T breast, 1.3 µM; with MDA-MB-435, 0.899 µM; in the assay with NCI/ADR-RES ovarian it was 0.736 µM.
For the compound `CNC(=S)Nc1ccc(OC)c2ccccc12`, the TGI in the assay on BT-549 breast, in the assay on DU-145 prostate, with HS 578T breast, in the assay with MDA-MB-435, in the assay with NCI/ADR-RES ovarian and in the assay with T-47D breast was above 10 µM throughout.
In the case of `CCCN1C(=O)NC(=O)C(CC)(N2C(=O)c3c(F)c(F)c(F)c(F)c3C2=O)C1=O` (stereo not drawn), the GI50 with BT-549 breast is 2.19 µM; in the assay on DU-145 prostate it was 1.7 µM; in the assay on HS 578T breast, 2.3 µM; with MDA-MB-435, 2.25 µM; with NCI/ADR-RES ovarian, 2.91 µM; with T-47D breast, 2.01 µM. In addition, the TGI in the assay on BT-549 breast is 5.29 µM; in the assay with DU-145 prostate it was 3.27 µM; in the assay on HS 578T breast it was 6.94 µM; in the assay on MDA-MB-435, 6.52 µM; in the assay with NCI/ADR-RES ovarian, 10.5 µM; in the assay with T-47D breast, 4.8 µM.
Take `N=C1C(O)C2(I)c3ccccc3N3C(=N)C(O)C4c5ccccc5N1C4C32` (stereo not drawn): the TGI in the assay with BT-549 breast was above 100 µM; with DU-145 prostate, above 100 µM; in the assay on HS 578T breast, above 100 µM; in the assay on MDA-MB-435 it was 37.9 µM; with NCI/ADR-RES ovarian, above 100 µM; with T-47D breast it was above 100 µM.
Take `c1ccc(-c2nc(-c3ccccn3)nc(-c3ccccn3)n2)nc1`: the GI50 is 44.6 µM in the assay on BT-549 breast; 48.9 µM with DU-145 prostate; 53.6 µM in the assay on HS 578T breast; 41.3 µM in the assay on MDA-MB-435; 6.37 µM in the assay with NCI/ADR-RES ovarian; 7.85 µM in the assay on T-47D breast. The TGI in the assay with BT-549 breast, in the assay with DU-145 prostate, in the assay on HS 578T breast, with MDA-MB-435, in the assay on NCI/ADR-RES ovarian and in the assay with T-47D breast was above 100 µM throughout.
Take `N#CC(C#N)=C/C=C(\Cl)c1ccc(Cl)cc1`: the GI50 in the assay on BT-549 breast is 8.32 µM; in the assay with DU-145 prostate, 11.6 µM; with HS 578T breast, 7.47 µM; with MDA-MB-435 it was 2.73 µM; in the assay with NCI/ADR-RES ovarian it was 4.57 µM; with T-47D breast, 13.8 µM. For the same compound, the TGI with BT-549 breast was 22 µM; in the assay on DU-145 prostate, 29.7 µM; in the assay on HS 578T breast, 26.3 µM; with MDA-MB-435, 10 µM; in the assay with NCI/ADR-RES ovarian, 16.2 µM; with T-47D breast it was 49.1 µM.
